Test results published in patent publication US20260132128A1, “COMPOUND FOR RECOVERING P53 MUTATION FUNCTION AND USE THEREOF” (SHENZHEN ZHONGGE BIOLOGICAL TECHNOLOGY CO., LTD., priority 2022, published 2026).
Marks after values point to notes of the source that are not given here.

Assays:
NUGC-3 cells = assay: NUGC-3 cell proliferation assay (CTG); type: cell-based, human; details: for GI50: 6 days, CTG; for Compound GI50 (nM)/Reference compound GI50 (nM): multiple ratio of GI50 of the compound to the reference compound
How it was run: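 NUGC-3 cells (250/well), plated overnight, were exposed 6 days at 37° C to compound, 10 doses of 1:3 dilutions from 10 μM top final. Viability by CellTiter-Glo luminescence; inhibition relative to 0.1% DMSO and blank, GI50 from variable-slope nonlinear fit.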

p53 Y220C [1] = molecular target: T1, p53 Y220C (Homo sapiens, UniProt P04637, Y220C); assay: DNA binding test (HTRF): binding of P53Y220C protein to DNA; type: biochemical; details: multiple ratio of EC50 of the compound to the reference compound, DNA binding test
T1 construct: a truncated mutant containing only amino acids 94-312 of p53; made in house; host or cells: E. coli

p53 Y220C [2] = molecular target: T2, p53 Y220C (Homo sapiens, UniProt P04637, P309S/R273H/Y220C); assay: as above; type: biochemical; details: HTRF, activation of p53 Y220C (aa 94-312) binding to biotin DNA
T2 construct: a truncated mutant containing only amino acids 94-312 of p53; made in house; host or cells: E. coli

[3] = Liver microsome stability test, mouse (MLM); type: in vitro ADME; details: mouse liver microsomes, NADPH; read-out: T1/2 (min) Mouse
Procedure: The 10 mM test compound/ketanserin (Energy Chemical, Cat. No. E020711) stock solution was diluted with acetonitrile to 0.5 mM compound/reference compound. The frozen 100 mM NADPH (MCE, Cat. No. HYF003/CS-4998) was diluted with phosphate buffer solution to a concentration of 6 mM; 20 mg/mL HLM (BioIVT, Cat. No. X008067) or MLM (BioIVT, Cat. No. M00501) was diluted with phosphate buffer solution to a concentration of 0.75 mg/ml, and added to a 96-round well plate, respectively, and shaken evenly on an oscillator at 600 rpm. The above oscillated samples were pipetted 3 times with an electric pipettor and dispensed into a new 96-well plate (containing NADPH group (n=2), NADPH-free group was added at 0 and 45 min (n=1)), and there were a total of 5 groups of 0, 5, 15, 30 and 45 min, respectively. After pre-incubation of the 5 groups of samples at 37° C. for 5 min, glacial acetonitrile was quickly added to the 0 min group for precipitation, and after rapid vortexing, K-Buffer or NADPH was added with an electric pipettor. The remaining groups were sequentially added with 6 mM NADPH to start the reaction in the order of 45, 30, 15 and 5 min samples, and K-Buffer solution was added to the NADPH-free group. After mixing at 1000 rpm in an oscillating mixer for 10 s, they were continuously incubated at 37° C. for the corresponding time. The reaction was terminated by quickly adding glacial acetonitrile internal standard using an electric pipettor; after vortexing at 900 rpm for 10 seconds, heat sealing was performed, oscillation was performed on an oscillator for 10 minutes, centrifugation was performed at 4000 rpm for 50 minutes, the supernatant was collected and diluted with pure water, and the test compound and the reference compound were quantified by LC-MS/MS analysis.

EC50 (p53 Y220C [2]) [nM] | half-life [3] [min] | SMILES | GI50 (NUGC-3 cells; Homo sapiens, NUGC-3, 144 h) [nM] | Compound GI50 (nM)/Reference compound GI50 (nM) (NUGC-3 cells) | Compound EC50 (nM)/Reference compound EC50 (nM) (p53 Y220C [1]) | GI50 (NUGC-3 cells) [nM]
< 100 | 22 | [2H]C([2H])([2H])NC(=O)c1ccc(NCC#Cc2cc3c(NC4CCC(N5CC6(COC6)C5)CC4F)cccn3c2CC(F)(F)F)c(OC([2H])([2H])[2H])c1 (single isomer, unassigned) [Compound 74d] | < 1000 | A (A: GI50 of the compound ≤ GI50 of the reference compound) | A (A: EC50 of the compound≤EC50 of the reference compound) | 
< 100 | 19.2 | CNC(=O)c1ccc(NCC#Cc2nc3c(NC4CCC(N5CC6(COC6)C5)CC4F)cccn3c2CC(F)(F)F)c(OC)c1 (single isomer, unassigned) [Compound 35-6i] |  | A (A: GI50 of the compound ≤ GI50 of the reference compound) | B (B: EC50 of the reference compound<EC50 of the compound≤3.0*EC50 of the reference compound) | < 1000
< 100 | 55 | [2H]C([2H])([2H])NC(=O)c1ccc(NCC#Cc2nc3c(NC4CC[C@@H](N5CC6(COC6)C5)C[C@@H]4F)cccn3c2CC(F)(F)F)c(OC([2H])([2H])[2H])c1 (stereo partly shown) [Compound 64] | < 1000 | B (B: GI50 of the reference compound < GI50 of the compound ≤ 3.0 * GI50 of the reference compound) | B (B: EC50 of the reference compound<EC50 of the compound≤3.0*EC50 of the reference compound) | 

More lines, now with the values behind:

SMILES | EC50 (p53 Y220C [2]) [nM] | half-life [3] [min] | GI50 (NUGC-3 cells; Homo sapiens, NUGC-3, 144 h) [nM] | Compound GI50 (nM)/Reference compound GI50 (nM) (NUGC-3 cells) | Compound EC50 (nM)/Reference compound EC50 (nM) (p53 Y220C [1]) | GI50 (NUGC-3 cells) [nM]
CNC(=O)c1ccc(NCC#Cc2nc3c(NC4CC[C@@H](N5CC6(COC6)C5)C[C@@H]4F)cccn3c2CC(F)(F)F)c(OCF)c1 (stereo partly shown) [Compound 58] |  | 33 | < 1000 | B (B: GI50 of the reference compound < GI50 of the compound ≤ 3.0 * GI50 of the reference compound) | B (B: EC50 of the reference compound<EC50 of the compound≤3.0*EC50 of the reference compound) | 
COc1cc(C(=O)NC2CC2)ccc1NCC#Cc1nc2c(NC3CC[C@@H](N4CC5(COC5)C4)C[C@@H]3F)cccn2c1CC(F)(F)F (stereo partly shown) [Compound 54] | < 100 | 78.4 | < 1000 | C (C: GI50 of the compound ≥ 3 * GI50 of the reference compound) | B (B: EC50 of the reference compound<EC50 of the compound≤3.0*EC50 of the reference compound) | 
CNC(=O)c1ccc(NCC#Cc2nc3c(N[C@@H]4CCN(C)C[C@@H]4F)cccn3c2CC(F)(F)F)c(OC)c1 [Compound 5] | < 100 |  | 1000 to 5000 | B (B: GI50 of the reference compound < GI50 of the compound ≤ 3.0 * GI50 of the reference compound) | B (B: EC50 of the reference compound<EC50 of the compound≤3.0*EC50 of the reference compound) | 
